Test results as given in patent publication US20130035326A1 (AMBIT BIOSCIENCES CORPORATION, priority 2009, published 2013).
Values joined by “and” are separate entries in the source; they are usually repeats but may differ in a detail not shown here. Equal entries are not always repeated.

Assays:
[1] = test system: MV4-11 cells; assay: MV4-11 cell proliferation assay (Alamar Blue); assay type: cell-based; settings: Homo sapiens, MV4-11, 72 h, 3 days incubation
How it was run: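 Flt3-ITD MV4-11 cells were serum-starved overnight in Iscove's with 0.5% FBS, then given compound at 9 half-log concentrations (0.5% DMSO) for 3 days at 37° C. Alamar Blue reduction was read after 3 h by fluorescence (560/590 nm). IC50 is the mean of duplicates versus negative control.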

[2] = target: kinase panel containing either 359 or 386 distinct kinases; assay: Selectivity score S10 from competition binding against a panel of kinases; settings: compounds at 10 μM; for Kinase specificty: S(10)-359 panel: panel of 359 distinct kinases; for Kinase specificty: S(10)-386 panel: panel of 386 distinct kinases
How it was run: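 Compounds were tested at 10 μM in competition binding against T7 phage-fused or HEK-293-expressed DNA-tagged kinases with immobilized affinity ligands, 1 h at room temperature. Bound kinase was quantified by qPCR as percent of DMSO control; S10 is the fraction of distinct kinases (mutants excluded) with POC below 10.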

[3] = target: T1, FLT3 kinase (Homo sapiens, UniProt P36888); assay: Competition binding assay, FLT3 Kd
T1 construct: made in house; host or cells: T7 phage display or HEK-293 cells
T1 sequence (P36888 27-993): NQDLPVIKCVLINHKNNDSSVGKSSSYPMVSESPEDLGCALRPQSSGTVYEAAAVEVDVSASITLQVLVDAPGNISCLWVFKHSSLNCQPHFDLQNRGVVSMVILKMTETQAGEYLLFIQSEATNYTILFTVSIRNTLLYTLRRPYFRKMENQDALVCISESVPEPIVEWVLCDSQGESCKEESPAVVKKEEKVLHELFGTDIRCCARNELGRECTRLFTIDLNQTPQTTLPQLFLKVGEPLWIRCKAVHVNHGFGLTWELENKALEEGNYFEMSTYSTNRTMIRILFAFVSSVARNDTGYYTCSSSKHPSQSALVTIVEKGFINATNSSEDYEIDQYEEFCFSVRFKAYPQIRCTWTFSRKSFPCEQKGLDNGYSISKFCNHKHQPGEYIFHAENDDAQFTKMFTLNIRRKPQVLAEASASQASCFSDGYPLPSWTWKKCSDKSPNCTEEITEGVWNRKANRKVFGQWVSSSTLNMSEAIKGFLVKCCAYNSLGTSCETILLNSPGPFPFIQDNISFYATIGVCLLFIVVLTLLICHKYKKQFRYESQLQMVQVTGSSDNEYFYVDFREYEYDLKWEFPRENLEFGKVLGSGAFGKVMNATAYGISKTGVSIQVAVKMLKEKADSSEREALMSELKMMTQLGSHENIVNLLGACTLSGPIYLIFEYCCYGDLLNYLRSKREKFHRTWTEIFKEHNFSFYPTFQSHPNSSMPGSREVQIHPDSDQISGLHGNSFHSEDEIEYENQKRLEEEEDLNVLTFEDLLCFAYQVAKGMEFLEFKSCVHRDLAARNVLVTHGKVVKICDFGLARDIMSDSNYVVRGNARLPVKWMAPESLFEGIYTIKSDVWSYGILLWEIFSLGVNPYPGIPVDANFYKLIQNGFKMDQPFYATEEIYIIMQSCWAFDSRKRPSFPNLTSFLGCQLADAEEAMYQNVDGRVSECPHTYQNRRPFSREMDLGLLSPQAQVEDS
How it was run: (§1)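 Equilibrium Kd measured by competition against immobilized ligand; kinase as T7 phage fusion or HEK-293 DNA-tagged protein; 1 h RT; qPCR read-out of eluate.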

[4] = target: T2, KIT kinase (Homo sapiens, UniProt P10721); assay: Competition binding assay, KIT Kd
T2 construct: made in house; host or cells: T7 phage display or HEK-293 cells
T2 sequence (P10721 26-976): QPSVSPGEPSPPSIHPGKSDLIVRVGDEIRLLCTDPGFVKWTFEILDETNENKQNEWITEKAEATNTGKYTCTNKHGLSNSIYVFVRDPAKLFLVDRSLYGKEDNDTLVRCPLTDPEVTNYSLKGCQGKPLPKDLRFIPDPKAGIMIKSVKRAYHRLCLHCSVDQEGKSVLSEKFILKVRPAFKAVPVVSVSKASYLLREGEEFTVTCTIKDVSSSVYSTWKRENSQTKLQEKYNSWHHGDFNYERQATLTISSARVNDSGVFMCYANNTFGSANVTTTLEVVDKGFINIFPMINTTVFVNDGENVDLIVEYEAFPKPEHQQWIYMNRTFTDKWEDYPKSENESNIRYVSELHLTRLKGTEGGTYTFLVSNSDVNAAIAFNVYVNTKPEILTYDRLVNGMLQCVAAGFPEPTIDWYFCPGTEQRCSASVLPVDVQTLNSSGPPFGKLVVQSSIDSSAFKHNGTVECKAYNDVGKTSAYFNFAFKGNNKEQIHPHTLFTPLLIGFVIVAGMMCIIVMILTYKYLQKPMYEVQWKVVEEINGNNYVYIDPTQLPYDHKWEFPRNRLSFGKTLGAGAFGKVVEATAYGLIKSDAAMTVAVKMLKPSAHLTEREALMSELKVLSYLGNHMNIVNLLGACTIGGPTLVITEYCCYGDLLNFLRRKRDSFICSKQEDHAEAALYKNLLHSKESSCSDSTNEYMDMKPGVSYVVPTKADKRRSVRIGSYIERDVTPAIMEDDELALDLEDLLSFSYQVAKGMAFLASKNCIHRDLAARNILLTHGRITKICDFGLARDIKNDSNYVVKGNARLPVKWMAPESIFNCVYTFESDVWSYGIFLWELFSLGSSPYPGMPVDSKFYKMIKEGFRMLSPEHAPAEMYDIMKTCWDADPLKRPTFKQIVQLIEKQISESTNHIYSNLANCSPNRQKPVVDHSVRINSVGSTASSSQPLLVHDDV
How it was run: as §1

[5] = target: T3, CSF-1R kinase (Homo sapiens, UniProt P07333); assay: Competition binding assay, CSF-1R Kd
T3 construct: made in house; host or cells: T7 phage display or HEK-293 cells
T3 sequence (P07333 20-972): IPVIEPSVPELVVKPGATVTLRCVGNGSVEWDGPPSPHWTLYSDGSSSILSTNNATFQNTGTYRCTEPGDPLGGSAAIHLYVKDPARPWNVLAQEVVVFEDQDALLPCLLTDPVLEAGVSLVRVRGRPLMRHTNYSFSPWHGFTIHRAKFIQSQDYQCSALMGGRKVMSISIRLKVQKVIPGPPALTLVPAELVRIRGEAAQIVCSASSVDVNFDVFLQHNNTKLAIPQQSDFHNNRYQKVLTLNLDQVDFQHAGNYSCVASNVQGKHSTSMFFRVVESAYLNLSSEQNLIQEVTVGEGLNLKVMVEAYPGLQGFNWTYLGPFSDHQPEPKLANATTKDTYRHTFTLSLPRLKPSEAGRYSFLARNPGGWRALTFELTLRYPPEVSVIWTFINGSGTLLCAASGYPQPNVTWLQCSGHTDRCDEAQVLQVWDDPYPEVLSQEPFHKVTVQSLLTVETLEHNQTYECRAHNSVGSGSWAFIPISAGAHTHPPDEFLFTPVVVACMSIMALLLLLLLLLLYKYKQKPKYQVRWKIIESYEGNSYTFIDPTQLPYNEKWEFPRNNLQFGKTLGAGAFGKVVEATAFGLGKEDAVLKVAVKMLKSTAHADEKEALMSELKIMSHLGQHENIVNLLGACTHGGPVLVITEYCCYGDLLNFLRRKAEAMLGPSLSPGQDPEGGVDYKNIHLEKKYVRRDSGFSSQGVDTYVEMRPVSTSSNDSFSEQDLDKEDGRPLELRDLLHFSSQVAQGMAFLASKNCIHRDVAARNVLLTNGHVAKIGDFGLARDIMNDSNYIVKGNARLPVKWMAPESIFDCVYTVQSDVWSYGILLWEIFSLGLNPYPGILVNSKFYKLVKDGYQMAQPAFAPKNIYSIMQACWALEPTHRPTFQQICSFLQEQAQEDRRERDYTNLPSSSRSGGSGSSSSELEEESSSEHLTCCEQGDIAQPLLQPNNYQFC
How it was run: as §1

IC50 [1] [nM] | Kinase specificty: S(10)-359 panel [2] | Kd [3] | Kd [4] [nM] | Kd [5] [nM] | Kinase specificty: S(10)-386 panel [2] | SMILES
≤ 1 | A (A≦0.1) | ≤ 1 nM | ≤ 1 | ≤ 10 | – | CC(C)(C)c1cc(NC(=O)Nc2ccc(-c3cnc4c(c3)OCC(=O)N4)cc2)no1 [Example 3, 1-(5-tert-butylisoxazol-3-yl)-3-(4-(3-oxo-3,4-dihydro-2H-pyrido[3,2-b][1,4]oxazin-7-yl)phenyl)urea]
10 to 100 | – | ≤ 1 nM | 1 to 10 | 10 to 100 | A (A≦0.1) | CS(=O)(=O)O.Nc1ccc(-c2ccc(CC(=O)Nn3cc(C(F)(F)F)cn3)cc2)cn1 [Example 126, 5-(4-(2-oxo-2-(4-(trifluoromethyl)-1H-pyrazol-1-ylamino)ethyl)phenyl)pyridin-2-aminium methanesulfonate]
≤ 1 | – | ≤ 1 nM | 1 to 10 | ≤ 10 | A (A≦0.1) | CC(C)(C)c1cc(NC(=O)Cc2ccc(-c3ccc(N)nc3F)cc2)on1.CS(=O)(=O)O [Example 119, 5-(4-(2-(3-tert-butylisoxazol-5-ylamino)-2-oxoethyl)phenyl)-6-fluoropyridin-2-aminium methanesulfonate]
10 to 100 | A (A≦0.1) | 1 to 10 nM | 1 to 10 | ≤ 10 | – | CC(C)(C)c1cc(NC(=O)Nc2ccc(-c3cnc4c(c3)CCC(=O)N4)cc2)no1 [Example 9, 1-(5-tert-butylisoxazol-3-yl)-3-(4-(7-oxo-5,6,7,8-tetrahydro-1,8-naphthyridin-3-yl)phenyl)urea]
≤ 1 | – | ≤ 1 nM | 1 to 10 | ≤ 10 | A (A≦0.1) | CC(C)(C)c1cc(NC(=O)Cc2ccc(-c3cc(F)c(N)nc3F)cc2)no1.CS(=O)(=O)O [Example 152, 5-(4-(2-(5-tert-butylisoxazol-3-ylamino)-2-oxoethyl)phenyl)-3,6-difluoropyridin-2-aminium methanesulfonate]
10 to 100 | A (A≦0.1) | 1 to 10 nM | ≤ 1 | 10 to 100 | – | CC(C)Nc1ncc(-c2ccc(NC(=O)Cc3cccc(C(F)(F)F)c3)nc2)cn1 [Example 67, N-(5-(2-(isopropylamino)pyrimidin-5-yl)pyridin-2-yl)-2-(3-(trifluoromethyl)phenyl)acetamide]
≤ 1 | – | ≤ 1 nM | 1 to 10 | ≤ 10 | B (0.1<B≦0.2 nM) | CC(F)(F)C1(c2cc(NC(=O)Cc3ccc(-c4ccc(N)nc4)cc3)no2)CC1 [Example 153]
≤ 1 | – | 1 to 10 nM | 1 to 10 | ≤ 10 | B (0.1<B≦0.2 nM) | CC(C)(C)c1cc(NC(=O)Cc2ccc(-c3cnc(N)c(F)c3)cc2)no1.CS(=O)(=O)O [Example 94, 5-(4-(2-(5-tert-butylisoxazol-3-ylamino)-2-oxoethyl)phenyl)-3-fluoropyridin-2-aminium methanesulfonate]
1 to 10 | – | ≤ 1 nM | 1 to 10 | ≤ 10 | A (A≦0.1) | CC(C)(C)c1cc(NC(=O)Cc2ccc(-c3ccc(N)nc3Cl)cc2)no1.CS(=O)(=O)O [Example 132, 5-(4-(2-(5-tert-butylisoxazol-3-ylamino)-2-oxoethyl)phenyl)-6-chloropyridin-2-aminium methanesulfonate]
≤ 1 | A (A≦0.1) | ≤ 1 nM and 1 to 10 nM | 1 to 10 | ≤ 10 | A (A≦0.1) | CC(C)(C)c1cc(NC(=O)Cc2ccc(-c3ccc(N)nc3)cc2)no1 [Example 18, 2-(4-(6-aminopyridin-3-yl)phenyl)-N-(5-tert-butylisoxazol-3-yl)acetamide]
≤ 1 | – | ≤ 1 nM | 1 to 10 | ≤ 10 | B (0.1<B≦0.2 nM) | CN1C(C)(C)CC(=CCNc2ccc(-c3ccc(CC(=O)Nc4cc(C(C)(C)C)on4)cc3)cn2)CC1(C)C [Example 117, N-(5-tert-butylisoxazol-3-yl)-2-(4-(6-(2-(1,2,2,6,6-pentamethylpiperidin-4-ylidene)ethylamino)pyridin-3-yl)phenyl)acetamide]
≤ 1 | B (0.1<B≦0.2 nM) | ≤ 1 nM | 1 to 10 | ≤ 10 | – | CC(C)(C)c1cc(NC(=O)Nc2ccc(-c3cnc(N)nc3)cc2)no1 [Example 44, 1-(4-(2-aminopyrimidin-5-yl)phenyl)-3-(5-tert-butylisoxazol-3-yl)urea]
1 to 10 | A (A≦0.1) | ≤ 1 nM | 1 to 10 | ≤ 10 | – | Cc1cc(N)ncc1-c1ccc(NC(=O)Nc2cc(C(C)(C)C)on2)cc1 [Example 24, 1-(4-(6-amino-4-methylpyridin-3-yl)phenyl)-3-(5-tert-butylisoxazol-3-yl)urea]
10 to 100 | B (0.1<B≦0.2 nM) | ≤ 1 nM | ≤ 1 | ≤ 10 | – | CC(C)Nc1ncc(-c2ccc(NC(=O)Nc3cc(C(C)(C)C)on3)nc2)cn1 [Example 65, 1-(5-tert-butylisoxazol-3-yl)-3-(5-(2-(isopropylamino)pyrimidin-5-yl)pyridin-2-yl)urea]
10 to 100 | – | ≤ 1 nM | 1 to 10 | ≤ 10 | A (A≦0.1) | CS(=O)(=O)O.Cc1cc(-c2ccc(CC(=O)Nc3cc(C4(C)COC4)on3)cc2)cnc1N [Example 145, 3-methyl-5-(4-(2-((5-(3-methyloxetan-3-yl)isoxazol-3-yl)amino)-2-oxoethyl)phenyl)pyridin-2-aminium methanesulfonate]
≤ 1 | – | ≤ 1 nM | ≤ 1 | ≤ 10 | A (A≦0.1) | CC(C)(C)c1cc(NC(=O)Cc2ccc(-c3ccc(N)nc3)c(F)c2)no1.CS(=O)(=O)O [Example 125, 5-(4-(2-(5-tert-butylisoxazol-3-ylamino)-2-oxoethyl)-2-fluorophenyl)pyridin-2-aminium methanesulfonate]
1 to 10 | A (A≦0.1) | 1 to 10 nM | 1 to 10 | ≤ 10 | – | CC(C)(C)c1cc(NC(=O)Nc2ccc(-c3cnc4c(c3)CCCN4)cc2)no1 [Example 12, 1-(5-tert-butylisoxazol-3-yl)-3-(4-(5,6,7,8-tetrahydro-1,8-naphthyridin-3-yl)phenyl)urea]
1 to 10 | – | ≤ 1 nM | ≤ 1 | ≤ 10 | A (A≦0.1) | CC1(c2cc(NC(=O)Nc3ccc(-c4ccc(N)nc4)cc3)no2)CC1.CS(=O)(=O)O [Example 106, 5-(4-(3-(5-(1-methylcyclopropyl)isoxazol-3-yl)ureido)phenyl)pyridin-2-aminium methanesulfonate]
10 to 100 | – | ≤ 1 nM | ≤ 1 | 100 to 500 | A (A≦0.1) | CC(C)(C)c1cc(NC(=O)Cc2ccc(-c3ccc(N)nc3)nc2)no1 [Example 155]
10 to 100 | B (0.1<B≦0.2 nM) | ≤ 1 nM | 1 to 10 | ≤ 10 | – | CC(C)(C)c1cc(NC(=O)Nc2ccc(-c3cnc(NCCN4CCCCC4)nc3)cc2)no1 [Example 60, 1-(5-tert-butylisoxazol-3-yl)-3-(4-(2-(2-(piperidin-1-yl)ethylamino)pyrimidin-5-yl)phenyl)urea]
